“And” between values parts separate entries of the source, which are not always exact repeats. Identical values can stand only once.

Common to all, as to assay: Greenhouse test, pre-emergence treatment
The test system of one experiment is ALOMY. Type of experiment: in vivo, Alopecurus myosuroides. Conditions: pre-emergence. The procedure, abridged:
(§1)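 Seeds were sown in loamy sand with approximately 3.0% humus, then sprayed at once with actives suspended or emulsified in water. Pots were watered, hooded until rooting, held at 10-25° C. or 20-35° C. by species for 2 to 4 weeks, and scored 0 (no damage) to 100 (no emergence/complete destruction).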

Another experiment deals with DIGSA. Type of experiment: in vivo.
In the next experiment the test system is KCHSC. Type of experiment: in vivo, Kochia scoparia. Conditions: pre-emergence. The procedure, abridged:
as §1

A further experiment has as its system LOLMU. The experiment is classed as in vivo, Lolium multiflorum. Conditions: pre-emergence. The source says:
(§2) The culture containers used were plastic flowerpots containing loamy sand with approximately 3.0% of humus as the substrate. The seeds of the test plants were sown separately for each species.
(§3) For the pre-emergence treatment, the active ingredients, which had been suspended or emulsified in water, were applied directly after sowing by means of finely distributing nozzles. The containers were irrigated gently to promote germination and growth and subsequently covered with transparent plastic hoods until the plants had rooted. This cover caused uniform germination of the test plants, unless this had been impaired by the active ingredients.
(§4) Depending on the species, the plants were kept at 10-25° C. or 20-35° C., respectively.
(§5) The test period extended over 2 to 4 weeks. During this time, the plants were tended, and their response to the individual treatments was evaluated.
(§6) Evaluation was carried out using a scale from 0 to 100. 100 means no emergence of the plants, or complete destruction of at least the aerial moieties, and 0 means no damage, or normal course of growth. A moderate herbicidal activity is given at values of at least 60, a good herbicidal activity is given at values of at least 70, and a very good herbicidal activity is given at values of at least 85.
(§7) The respective stated components a and b, and if appropriate, c were formulated as a 10% by weight strength emulsion concentrate and, with addition of the amount of solvent system, introduced into the spray liquor used for applying the active compound.
(§8) In the examples, the solvent used was water.
(§9) In the examples below, using the method of S. R. Colby (1967) “Calculating synergistic and antagonistic responses of herbicide combinations”, Weeds 15, p. 22ff., the value E, which is expected if the activity of the individual active compounds is only additive, was calculated. E=X+Y−(X·Y/100) where • X=percent activity using active compound a at an application rate A; • Y=percent activity using active compound b at an application rate B; • E=expected activity (in %) by a+b at application rates A+B.
(§10) If the value found experimentally is higher than the value E calculated according to Colby, a synergistic effect is present.

The test system of the next experiment is POLCO. The experiment is classed as in vivo, Polygonum convolvulus. Conditions: pre-emergence; for observed % activity 20 DAT: POLCO. The procedure, abridged: as §1
For the next experiment, the system named is ELEIN. Type of experiment: in vivo, Eleusine indica.
Source text: as §2, §3, §4, §5, §6, §7, §8, §9, §10

The subject of another experiment is AVEFA. Type of experiment: in vivo, Avena fatua. Conditions: pre-emergence.
Source text: as §2, §3, §4, §5, §6, §7, §8, §9, §10

The subject of a further experiment is BRADC. The experiment is classed as in vivo, Brachiaria decumbens. Conditions: pre-emergence.
Source text: as §2, §3, §4, §5, §6, §7, §8, §9, §10

In another experiment the test system is PHACA. The experiment is classed as in vivo, Phalaris canariensis. Conditions: pre-emergence.
Source text: as §2, §3, §4, §5, §6, §7, §8, §9, §10

The next experiment has as its system ECHCG. Type of experiment: in vivo, Echinocloa crus-galli.
Source text: as §2, §3, §4, §5, §6, §7, §8, §9, §10

The next experiment deals with SETVI. Type of experiment: in vivo, Setaria viridis.
Source text: as §2, §3, §4, §5, §6, §7, §8, §9, §10

For a further experiment, the system named is AMARE. The experiment is classed as in vivo, Amaranthus retroflexus. Conditions: application rate 0.25 kg/ha, scale 0 to 100.
Source text: as §2, §3, §4, §5
Evaluation was carried out using a scale from 0 to 100. […]
In the examples below, using the method of S. R. Colby (1967) “Calculating synergistic and antagonistic responses of herbicide combinations”, Weeds 15, p. 22ff., the value E, which is expected if the activity of the individual active compounds is only additive, was calculated. […]
as §10

Another experiment has as its system SETFA. Type of experiment: in vivo, Setaria faberi. Conditions: SETFA, application rate 0.25 kg/ha, scale 0 to 100.
Source text: as §2, §3, §4, §5, §6, §7, §8, §9, §10

In a further experiment the test system is GERPU. Type of experiment: in vivo, Geranium pusillum. Conditions: Geranium pusillum, pre-emergence, 480 h. A digest of the protocol: as §1
For a further experiment, the system named is IPOHE. Type of experiment: in vivo, Ipomoea hederacea. Conditions: Ipomoea hederacea, 480 h, 60 g ai/ha, read-out: observed % activity 20 DAT. A digest of the protocol:
as §1

Another experiment relates to EPHHL. The experiment is classed as in vivo, Euphorbia heterophylla. Conditions: Euphorbia heterophylla, pre-emergence, 480 h. The procedure, abridged: as §1
The test system of a further experiment is CENCY. The experiment is classed as in vivo. Conditions: 480 h, read-out: observed % activity 20 DAT.
The test system of another experiment is SIDRH. Type of experiment: in vivo, Sida rhombifolia. Conditions: Sida rhombifolia, pre-emergence, 480 h, 40 g ai/ha, 20 DAT; read-out: observed % activity. The procedure, abridged: as §1
In a further experiment the test system is ABUTH. The experiment is classed as in vivo, Abutilon theophrasti. The procedure, abridged: as §1
Another experiment has as its system ANTAR. Type of experiment: in vivo. Conditions: Anthemis arvensis, 480 h, 40 g ai/ha, 20 DAT, read-out: observed % activity. The procedure, abridged:
as §1

For the next experiment, the system named is COMBE. The experiment is classed as in vivo, Commelina benghalensis. Conditions: Commelina benghalensis, pre-emergence, 480 h. A digest of the protocol: as §1
The next experiment concerns GALAP. The experiment is classed as in vivo, Galium aparine. Conditions: Galium aparine, pre-emergence, 480 h. A digest of the protocol: as §1
[1] abbreviates: 40 g ai/ha, 20 DAT, read-out: observed % activity.
Where [2] appears, read: 80 g ai/ha, 20 DAT, read-out: observed % activity.
The mark [3] stands for this setting: 60 g ai/ha, read-out: observed % activity 20 DAT.

Take `C#CCN1C(=O)C(F)(F)Oc2cc(F)c(-n3c(=O)n(C)c(=S)n(C)c3=O)cc21` [PPO, trifludimoxazin]: the “observed % activity 20 DAT” value in the experiment on ALOMY (25 g ai/ha) was 60%; in the experiment on DIGSA (18 g ai/ha), 85%; with DIGSA (36 g ai/ha), 90%; with KCHSC (KCHSC, use rate 12.5 g ai/ha, 20 DAT) it was 25%; in the experiment with KCHSC (use rate 12.5 g ai/ha), 25%; in the experiment on KCHSC (use rate 25 g ai/ha), 85%. In addition, the “observed % activity 20 DAT” value with LOLMU (25 g ai/ha) was determined as 0%; in the experiment with LOLMU (36 g ai/ha) it was 35%; in the experiment with LOLMU (50 g ai/ha), 55%; in the experiment with POLCO (use rate 12.5 g ai/ha, 20 DAT), 0%; with POLCO (use rate 25 g ai/ha, 20 DAT), 0%; with ELEIN (18 g ai/ha) it was 55%. For the same compound, the “observed % activity 20 DAT” value turned out to be 90% with ELEIN (36 g ai/ha); 0% in the experiment on AVEFA (25 g ai/ha); 15% with AVEFA (36 g ai/ha); 0% in the experiment with AVEFA (50 g ai/ha); 65% with BRADC (25 g ai/ha); 25% in the experiment with BRADC (36 g ai/ha). For the same compound, the “observed % activity 20 DAT” value with PHACA (18 g ai/ha) is 45%; in the experiment on PHACA (25 g ai/ha) it was 35%; in the experiment on PHACA (36 g ai/ha, listed as BAS 850 (PPO)), 70% and 65%; with PHACA (use rate 12.5 g ai/ha) it was 85%; with ECHCG (18 g ai/ha), 0%; in the experiment with SETVI (18 g ai/ha) it was 95%. In addition, in the experiment with SETVI (36 g ai/ha), the “observed % activity 20 DAT” value turned out to be 90%.

With `CC(c1nc(N)nc(Nc2c(F)c(F)cc(F)c2F)n1)C(C)(C)C` (stereo not shown) [Example 7, N4-(2,3,5,6-tetrafluorophenyl)-6-(1,2,2-trimethylpropyl)-1,3,5-triazine-2,4-diamine], the herbicidal activity result in the experiment on AMARE was “very good herbicidal activity (a very good herbicidal activity is given at values of at least 85)”; in the experiment on SETFA, “very good herbicidal activity (a very good herbicidal activity is given at values of at least 85)”; in the experiment on ECHCG (ECHCG, application rate 0.25 kg/ha, scale 0 to 100), “very good herbicidal activity (a very good herbicidal activity is given at values of at least 85)”.

On to `O=C(Nc1ccc(F)cc1F)c1cccnc1Oc1cccc(C(F)(F)F)c1` [diflufenican], for which the inhibition at 40 g/ha in the experiment with GERPU (setting [1]) is 40%; with EPHHL (setting [1]) it was 20%; in the experiment with POLCO (Fallopia convolvulus, 480 h, 40 g ai/ha, 20 DAT, read-out: observed % activity), 20%; in the experiment on SIDRH it was 0%; in the experiment with ABUTH (Abutilon theophrasti, 480 h, 40 g ai/ha, 20 DAT, read-out: observed % activity) it was 25%; in the experiment on ANTAR, 85%. Besides, the inhibition at 80 g/ha in the experiment with GERPU (setting [2]) worked out at 50%; with ABUTH (Abutilon theophrasti, 480 h, 80 g ai/ha, 20 DAT, read-out: observed % activity), 50%; in the experiment on COMBE (setting [2]), 55%; in the experiment with GALAP (setting [2]), 40%. Besides, the inhibition at 60 g/ha in the experiment with GERPU (setting [3]) is 60%; in the experiment with IPOHE, 15%; in the experiment on EPHHL (setting [3]), 15%; in the experiment on CENCY (60 g ai/ha) it was 0%; in the experiment with KCHSC (Bassia scoparia, 480 h, 60 g ai/ha, read-out: observed % activity 20 DAT), 80%; in the experiment with POLCO (Fallopia convolvulus, 480 h, 60 g ai/ha, read-out: observed % activity 20 DAT), 60%. In addition, the inhibition at 60 g/ha with ABUTH (Abutilon theophrasti, 480 h, 60 g ai/ha, read-out: observed % activity 20 DAT) came to 0%; in the experiment with COMBE (setting [3]) it was 35%; with GALAP (setting [3]), 25%. The inhibition at 30 g/ha in the experiment on CENCY (30 g ai/ha) was 0%; in the experiment on ABUTH (Abutilon theophrasti, 480 h, 30 g ai/ha, read-out: observed % activity 20 DAT) it was 0%; in the experiment on GALAP (30 g ai/ha, read-out: observed % activity 20 DAT), 20%.

Regarding `CC(C)N(C(=O)SCC(Cl)=C(Cl)Cl)C(C)C` [Tri-allate, triallate], the inhibition at 400 g/ha with ALOMY (Alopecurus myosuroides, 480 h, 400 g ai/ha, read-out: observed % activity 20 DAT) came out at 5%; with DIGSA (Digitaria sanguinalis, 480 h, 400 g ai/ha, read-out: observed % activity 20 DAT), 0%; with ELEIN (Eleusine indica, 480 h, 400 g ai/ha, read-out: observed % activity 20 DAT), 0%; in the experiment on AVEFA (Avena fatua, 480 h, 400 g ai/ha, read-out: observed % activity 20 DAT), 75%; in the experiment with PHACA (Phalaris canariensis, 480 h, 400 g ai/ha, read-out: observed % activity 20 DAT), 0%. Also, the inhibition at 200 g/ha in the experiment on AVEFA (Avena fatua, 480 h, 200 g ai/ha, read-out: observed % activity 20 DAT) is 45%; with BRADC (Urochloa decumbens, 480 h, 200 g ai/ha, read-out: observed % activity 20 DAT), 0%; in the experiment with PHACA (Phalaris canariensis, 480 h, 200 g ai/ha, read-out: observed % activity 20 DAT) it was 0%.

Consider `CCCC(C)c1nc(N)nc(Nc2c(F)c(F)cc(F)c2F)n1` (stereo not shown) [Example 6, 6-(1-methylbutyl)-N4-(2,3,5,6-tetrafluorophenyl)-1,3,5-triazine-2,4-diamine], for which the herbicidal activity result in the experiment on AMARE is “very good herbicidal activity (a very good herbicidal activity is given at values of at least 85)”; with ABUTH (ABUTH, application rate 0.25 kg/ha, scale 0 to 100) it was “very good herbicidal activity (a very good herbicidal activity is given at values of at least 85)”; in the experiment with SETFA, “very good herbicidal activity (a very good herbicidal activity is given at values of at least 85)”.

For the origin of these results see US9999222B2, “Herbicidal combination comprising azines” (BASF SE, priority 2014, dated 2018).
